# Data from US9115169B2, “Method of treating tumors” (Lytix Biopharma AS, priority 2000, dated 2015).
# Like-named read-outs stand apart in the source and are kept apart here. Where a SMILES comes first, the peptide text is derived from it. [ ]: non-standard residue; d: D form. The star is where a group is joined. Bip = N[C@@H](Cc1ccc(-c2ccccc2)cc1)C(=O)O; 2Nal = N[C@@H](Cc1ccc2ccccc2c1)C(=O)O; Cha = N[C@@H](CC1CCCCC1)C(=O)O; βNA = c1ccc2cc(N*)ccc2c1; OBn = c1ccc(CO*)cc1
# What was measured:
# [1] = test system: Escherichia coli ATCC 25922
# [2] = test system: Staphylococcus aureus ATCC 25923
# MRSA ATCC 33591 [3] = test system: MRSA ATCC 33591
# Procedure: (§1) All strains were stored at −70° C. […] All assays were performed in duplicate.
# MRSE ATCC 27626 [4] = test system: MRSE ATCC 27626
# Procedure: as §1
# [5] = test system: Escherichia coli ATCC 25922; conditions: ATCC 25922
# [6] = test system: Staphylococcus aureus ATCC 25923; conditions: ATCC 25923
# MRSA ATCC 33591 [7] = test system: MRSA ATCC 33591; remark: listed apart in the source
# Procedure: as §1
# MRSE ATCC 27626 [8] = test system: MRSE ATCC 27626; remark: listed apart in the source
# Procedure: as §1
# Procedure for P. aeruginosa: as §1
Compound,MIC E. coli ([1]; ATCC 25922),MIC S. aureus ([2]; ATCC 25923),MIC MRSA (MRSA ATCC 33591 [3]; ATCC 33591),MIC MRSE (MRSE ATCC 27626 [4]; ATCC 27626),MBC E. coli [5],MBC S. aureus [6],MBC MRSA (MRSA ATCC 33591 [7]),MBC MRSE (MRSE ATCC 27626 [8]),also measured
N=C(N)NCCC[C@H](NC(=O)[C@H](Cc1ccc(O)cc1)NC(=O)[C@H](CCCNC(=N)N)NC(=O)[C@H](Cc1ccc2ccccc2c1)NC(=O)[C@@H](N)CCCNC(=N)N)C(=O)N[C@@H](Cc1ccc2ccccc2c1)C(N)=O [Arg-(2-Nal)-Arg-Tyr-Arg-(2-Nal)NH2] (H-R[2Nal]RYR[2Nal]-NH2; N-terminus assumed),10 µg/mL,5 µg/mL,2.5 µg/mL,2.5 µg/mL,15 µg/mL,5 µg/mL,5 µg/mL,2.5 µg/mL,
N=C(N)NCCC[C@H](NC(=O)[C@@H](N)Cc1ccc(-c2ccccc2)cc1)C(=O)OCc1ccccc1 [BipR-OBzl] (H-[Bip]-Arg-OBn; N-terminus assumed),150.0 µg/mL,5.0 µg/mL,5.0 µg/mL,5.0 µg/mL,,,,,MIC P. aerug. (P. aeruginosa): 100.0 µg/mL
COC(=O)[C@H](CCCNC(=N)N)NC(=O)[C@@H](N)Cc1ccc(-c2ccccc2)cc1 [BipR-OMe] (H-[Bip]-Arg-OMe; N-terminus assumed),>300.0 µg/mL,150.0 µg/mL,50.0 µg/mL,50.0 µg/mL,,,,,MIC P. aerug. (P. aeruginosa): >300.0 µg/mL
N=C(N)NCCC[C@H](NC(=O)[C@@H](N)CC1CCCCC1)C(=O)OCc1ccccc1 [ChxAR-OBzl] (H-[Cha]-Arg-OBn; N-terminus assumed),300.0 µg/mL,50 to 100 µg/mL,25 to 37.5 µg/mL,25.0 µg/mL,,,,,MIC P. aerug. (P. aeruginosa): >300.0 µg/mL
N=C(N)NCCC[C@H](NC(=O)[C@@H](N)Cc1ccccc1)C(=O)OCc1ccccc1 [FR-Obzl] (H-Phe-Arg-OBn; N-terminus assumed),,,,,,,,,MIC P. aerug. (P. aeruginosa): >300.0 µg/mL
N=C(N)NCCC[C@H](NC(=O)[C@@H](N)Cc1ccccc1)C(=O)Nc1ccc2ccccc2c1 [FRβNA] (H-Phe-Arg-βNA),,,,,,,,,Minimum inhibitory concentration E. coli ([1]; Table 9): >150 µg/mL; Minimum inhibitory concentration S. aureus ([2]; Table 9): 5 µg/mL; Minimum inhibitory concentration MRSA (MRSA ATCC 33591 [3]; Table 9): 12.5 µg/mL; Minimum inhibitory concentration MRSE (MRSE ATCC 27626 [4]; Table 9): 5 µg/mL; Minimum inhibitory concentration P. aeruginosa (P. aeruginosa; Table 9): >300 µg/mL
NCCCC[C@H](N)C(=O)N[C@@H](Cc1c[nH]c2ccccc12)C(=O)OCc1ccccc1 [KW-Obzl] (H-Lys-Trp-OBn; N-terminus assumed),>300 µg/mL,37.5 µg/mL,37.5 µg/mL,25 µg/mL,,,,,Minimum inhibitory concentration E. coli ([1]; ATCC 25922): >300 µg/mL; Minimum inhibitory concentration S. aureus ([2]; ATCC 25923): 37.5 µg/mL; Minimum inhibitory concentration MRSA (MRSA ATCC 33591 [3]; ATCC 33591): 37.5 µg/mL; Minimum inhibitory concentration MRSE (MRSE ATCC 27626 [4]; ATCC 27626): 25 µg/mL
NCCCC[C@H](N)C(=O)O[C@@H](Cc1c[nH]c2ccccc12)C(=O)OCc1ccccc1 [Kψ(COO)WOBzl],,,,,,,,,Minimum inhibitory concentration E. coli ([1]; ATCC 25922): 150 µg/mL; Minimum inhibitory concentration S. aureus ([2]; ATCC 25923): 50 µg/mL; Minimum inhibitory concentration MRSA (MRSA ATCC 33591 [3]; ATCC 33591): 100 µg/mL; Minimum inhibitory concentration MRSE (MRSE ATCC 27626 [4]; ATCC 27626): 37.5 µg/mL; Minimum inhibitory concentration P. aeruginosa (P. aeruginosa): 300 µg/mL
N=C(N)NCCC[C@H](N)C(=O)N[C@@H](Cc1c[nH]c2ccccc12)C(=O)OCc1ccccc1 [RW OBz] (H-Arg-Trp-OBn),>200 (>200) μg/ml,50 (50) μg/ml,25 µg/mL,20 (20) μg/ml,>200 (>200) μg/ml,50 (50) μg/ml,50 µg/mL,20 (20) μg/ml,
COC(=O)[C@H](Cc1c[nH]c2ccccc12)NC(=O)[C@@H](N)CCCNC(=N)N [RW-OMe] (H-Arg-Trp-OMe; N-terminus assumed),>300.0 µg/mL,>300.0 µg/mL,>300.0 µg/mL,200.0 µg/mL,,,,,
"COC(=O)[C@H](CCCNC(=N)N)NC(=O)[C@H](Cc1c[nH]c2ccccc12)NC(=O)[C@@H](N)CCCNC(=N)N [RWR-OMe, H-L-Arg-L-Trp-L-Arg-OMe] (H-Arg-Trp-Arg-OMe)",,,,,>200 (>200) μg/ml,>200 (>200) μg/ml,>200 (>200) μg/ml,200 µg/mL,
"N=C(N)NCCC[C@H](NC(=O)[C@H](Cc1c[nH]c2ccccc12)NC(=O)[C@@H](N)CCCNC(=N)N)C(=O)N[C@@H](Cc1c[nH]c2ccccc12)C(=O)OCc1ccccc1 [RWRW-OBzl, H-L-Arg-L-Trp-L-Arg-L-Trp-OBzl] (H-RWRW-OBn)",75 µg/mL,5 µg/mL,5 µg/mL,2.5 (2.5) μg/ml,100 µg/mL,5 to 10 µg/mL,5 to 10 µg/mL,2.5 (2.5) μg/ml,
"COC(=O)[C@H](CCCNC(=N)N)NC(=O)[C@H](Cc1c[nH]c2ccccc12)NC(=O)[C@H](Cc1c[nH]c2ccccc12)NC(=O)[C@@H](N)CCCNC(=N)N [RWWR-OMe, H-L-Arg-L-Trp-L-Trp-L-Arg-OMe] (H-RWWR-OMe)",,75 µg/mL,,,>200 (>200) μg/ml,100 to 200 µg/mL,100 to 200 µg/mL,20 (20) μg/ml,
"N=C(N)NCCC[C@H](N)C(=O)N[C@@H](Cc1c[nH]c2ccccc12)C(=O)N[C@H](CCCNC(=N)N)C(=O)N[C@H](Cc1c[nH]c2ccccc12)C(=O)OCc1ccccc1 [RWrw-OBzl, H-L-Arg-L-Trp-D-Arg-D-Trp-OBzl] (H-RW[dR][dW]-OBn)",75 µg/mL,5 (5) μg/ml,2.5 to 5 µg/mL,2.5 (2.5) μg/ml,75 to 100 µg/mL,5 (5) μg/ml,5 µg/mL,2.5 (2.5) μg/ml,
N=C(N)NCCC[C@H](N)C(=O)N[C@@H](Cc1c[nH]c2ccccc12)C(=O)Nc1ccc2ccccc2c1 [RWβNA] (H-Arg-Trp-βNA),,,,,,,,,Minimum inhibitory concentration E. coli ([1]; Table 9): 100 µg/mL; Minimum inhibitory concentration S. aureus ([2]; Table 9): 12.5 µg/mL; Minimum inhibitory concentration MRSA (MRSA ATCC 33591 [3]; Table 9): 12.5 µg/mL; Minimum inhibitory concentration MRSE (MRSE ATCC 27626 [4]; Table 9): 12.5 µg/mL
N=C(N)NCCC[C@H](N)C(=O)N[C@H](Cc1c[nH]c2ccccc12)C(=O)OCc1ccccc1 [Rw-OBzl] (H-Arg-[dW]-OBn; N-terminus assumed),>300 µg/mL,37.5 µg/mL,37.5 µg/mL,25 µg/mL,,,,,
N=C(N)NCCC[C@H](NC(=O)[C@@H](N)Cc1c[nH]c2ccccc12)C(=O)OCc1ccccc1 [WR-OBzl] (H-Trp-Arg-OBn; N-terminus assumed),,,37.5 µg/mL,50.0 µg/mL,,,,,MIC P. aerug. (P. aeruginosa): >300.0 µg/mL
"COC(=O)[C@H](CCCNC(=N)N)NC(=O)[C@@H](N)Cc1c[nH]c2ccccc12 [WR-OMe, H-L-Trp-L-Arg-OMe] (H-Trp-Arg-OMe)",,,,,>200 (>200) μg/ml,>200 (>200) μg/ml,>200 (>200) μg/ml,>200 (>200) μg/ml,
N=C(N)NCCC[C@H](NC(=O)[C@@H](N)Cc1c[nH]c2ccccc12)C(=O)N[C@@H](Cc1c[nH]c2ccccc12)C(=O)OCc1ccccc1 [WRW OBz] (H-Trp-Arg-Trp-OBn),75 µg/mL,5 (5) μg/ml,5 µg/mL,5 (5) μg/ml,200 µg/mL,5 (5) μg/ml,10 µg/mL,5 (5) μg/ml,
"COC(=O)[C@H](CCCNC(=N)N)NC(=O)[C@H](Cc1c[nH]c2ccccc12)NC(=O)[C@@H](N)Cc1c[nH]c2ccccc12 [WWR-OMe, H-L-Trp-L-Trp-L-Arg-OMe] (H-Trp-Trp-Arg-OMe)",,,,,>200 (>200) μg/ml,>200 (>200) μg/ml,>200 (>200) μg/ml,>200 (>200) μg/ml,
N=C(N)NCCC[C@@H](N)C(=O)N[C@@H](Cc1c[nH]c2ccccc12)C(=O)OCc1ccccc1 [rW-Obzl] (H-[dR]-Trp-OBn; N-terminus assumed),>300 µg/mL,37.5 µg/mL,50 µg/mL,25 µg/mL,,,,,
N=C(N)NCCC[C@@H](N)C(=O)N[C@H](Cc1c[nH]c2ccccc12)C(=O)OCc1ccccc1 [rw OBz] (H-[dR]-[dW]-OBn),>200 (>200) μg/ml,50 µg/mL,50 µg/mL,20 µg/mL,>200 (>200) μg/ml,75 µg/mL,75 µg/mL,25 µg/mL,
N=C(N)NCCC[C@H](NC(=O)[C@H](N)Cc1c[nH]c2ccccc12)C(=O)N[C@@H](Cc1c[nH]c2ccccc12)C(=O)OCc1ccccc1 [wRW OBz] (H-[dW]-Arg-Trp-OBn),75 µg/mL,20 (20) μg/ml,20 (20) μg/ml,10 (10) μg/ml,100 µg/mL,20 (20) μg/ml,20 (20) μg/ml,10 (10) μg/ml,
N=C(N)NCCC[C@@H](NC(=O)[C@H](N)Cc1c[nH]c2ccccc12)C(=O)N[C@H](Cc1c[nH]c2ccccc12)C(=O)OCc1ccccc1 [wrw OBz] (H-[dW]-[dR]-[dW]-OBn),75 µg/mL,5 (5) μg/ml,5 µg/mL,5 (5) μg/ml,200 µg/mL,5 (5) μg/ml,10 µg/mL,5 (5) μg/ml,
